These results are taken from paper PMC11597817, “Modulation of Multispecific Transporters by Uncaria tomentosa Extract and Its Major Phytoconstituents” (Pharmaceutics, 2024).

The term IC50 denotes the midpoint of a concentration-inhibition curve. Usually inhibition stands for the share of the control response that was lost under treatment. A word on the Ki: it is the dissociation constant of the complex between target and ligand, obtained from inhibition or displacement.

Some results are limits rather than exact numbers.

Data set [1] concerns NIH/3T3. Description: Antiproliferative MTT assay. It is filed as cell-based, murine. Conditions: 72 h. As for the experimental part: (§1) For the determination of the antiproliferative properties of the prepared extract and selected alkaloids (isopteropodine, mitraphylline, and uncarine D), an MTT assay was applied on our […] cell panel (see Table S4). […] All were maintained in a minimal essential medium completed with 10% fetal bovine serum, 1% non-essential amino acids, and 1% penicillin–streptomycin at 37 °C in a humidified atmosphere containing 5% CO2. All cell lines were purchased from the European Collection of Cell Cultures (Salisbury, UK), except for SiHa and C33A, which were from the American Tissue Culture Collection, LGC Standards GmbH (Wesel, Germany). Cell culture media and supplements were obtained from Lonza Group Ltd. (Basel, Switzerland). Cells were seeded into 96-well plates (C33A 10,000/well, all others 5000/well); after overnight incubation, the test substances were added and incubated for another 72 h under cell-culturing conditions. Uncaria tomentosa extract and the alkaloids were tested in the 1–90 μg/mL and 1–30 μM ranges, respectively. Finally, 20 μL of 5 mg/mL MTT solution was added to each well and incubated for 4 h; the medium was discarded, and the precipitated formazan crystals were dissolved in DMSO for 60 min with shaking. The absorbance was determined using a microplate reader (SPECTROstar Nano, BMG Labtech GmbH). Two independent experiments were performed with five parallels for each condition. Cisplatin, a clinically used anticancer agent (Ebewe GmbH, Unterach, Austria), was included as a reference compound. Calculations were conducted using the GraphPad Prism 10.0 software (GraphPad Software Inc., San Diego, CA, USA).
(§2) Table S4 – Antiproliferative properties of Uncaria tomentosa extract, three natural products (isopteropodine, mitraphylline, and uncarine D) and the
(§3) reference agent cisplatin.
(§4) Cell line Uncaria tomentosa isopteropodine mitraphylline uncarine D [95% confidence
(§5) 1: The highest applied concentration was 90 μg/mL and 30 μM for the extract and the pure natural products, respectively.
(§6) 2: Inhibitions less than 20% compared to the untreated control were regarded as negligible and were not given numerically.
On the technique in general: Tetrazolium assays rely on reduction of a dye to a coloured formazan, in cell work by metabolically active cells.

Data set [2] relates to HEK293-OATP2B1. It is filed as cell-based, human. As to the method: as §1, §2, §3, §4, §5, §6
In data set [3] the test system is HEK293-OCT2. It is filed as cell-based, human. As to the method: as §1, §2, §3, §4, §5, §6
In data set [4] the test system is HEK293-OATP1B3. It is filed as cell-based, human. As for the experimental part:
as §1, §2, §3, §4, §5, §6

Data set [5] concerns HEK293-OAT1. It is filed as cell-based, human. As for the experimental part: as §1, §2, §3, §4, §5, §6
Data set [6] concerns HEK293-OCT1. It is filed as cell-based, human. As for the experimental part: as §1, §2, §3, §4, §5, §6
Data set [7] has as its system SiHa. Description: Antiproliferative MTT assay. Conditions: 72 h. It is filed as cell-based, human. As for the experimental part: as §1, §2, §3, §4, §5, §6
In data set [8] the test system is HEK293-Mock-B. In words: Antiproliferative MTT assay. It is filed as cell-based, human. Particulars: 72 h. As for the experimental part: as §1, §2, §3, §4, §5, §6
Data set [9] concerns HEK293-Mock. Description: Antiproliferative MTT assay. It is filed as cell-based, human. Particulars: 72 h. As for the experimental part: as §1, §2, §3, §4, §5, §6
Data set [10] deals with C33A. Description: Antiproliferative MTT assay. It is filed as cell-based, human. Conditions: 72 h. As for the experimental part:
as §1, §2, §3, §4, §5, §6

Data set [11] relates to OATP1B3. Also noted: method as in ref 75 (a number printed in a supplementary file, which may have a reference list of its own: not looked up in the article's list). Conditions: cited from earlier work; for inhibition: OATP1B1/3.
Data set [12] deals with OATP1B1. Also noted: method as in ref 75 (a number printed in a supplementary file, which may have a reference list of its own: not looked up in the article's list). Particulars: cited from earlier work; for inhibition: OATP1B1/3.
The subject of data set [13] is pregnane X receptor (PXR). Particulars: cited from earlier work.
Data set [14] relates to rMRP2. Further details: method as in ref 157 (a number printed in a supplementary file, which may have a reference list of its own: not looked up in the article's list). Particulars: transcription and expression; cited from earlier work.
The test system of data set [15] is rMRP4. Also noted: method as in ref 157 (a number printed in a supplementary file, which may have a reference list of its own: not looked up in the article's list). Conditions: transcription and expression; cited from earlier work.
Data set [16] concerns rMDR1a. Also noted: method as in ref 157 (a number printed in a supplementary file, which may have a reference list of its own: not looked up in the article's list). Conditions: transcription and expression; cited from earlier work.
The subject of data set [17] is rNTCP. Also noted: method as in ref 157 (a number printed in a supplementary file, which may have a reference list of its own: not looked up in the article's list). Particulars: transcription and expression; cited from earlier work.
For data set [18], the system named is rMRP1. Further details: method as in ref 156 (a number printed in a supplementary file, which may have a reference list of its own: not looked up in the article's list). Particulars: transcription and expression; cited from earlier work.
Data set [19] has as its system DAT. Further details: method as in ref 153 (a number printed in a supplementary file, which may have a reference list of its own: not looked up in the article's list). Particulars: cited from earlier work.
The test system of data set [20] is NET. Also noted: method as in ref 153 (a number printed in a supplementary file, which may have a reference list of its own: not looked up in the article's list). Conditions: cited from earlier work.
Data set [21] deals with SERT. Also noted: method as in ref 153 (a number printed in a supplementary file, which may have a reference list of its own: not looked up in the article's list). Conditions: cited from earlier work.
The subject of data set [22] is A2780. Description: Antiproliferative MTT assay. Conditions: 30 μM pure natural product, 72 h. It is filed as cell-based, human. As to the method: as §1, §2, §3, §4, §5, §6
Data set [23] has as its system HeLa. Description: Antiproliferative MTT assay. It is filed as cell-based, human. Conditions: 30 μM pure natural product, 72 h. As to the method: as §1, §2, §3, §4, §5, §6
The subject of data set [24] is MCF7. Description: Antiproliferative MTT assay. Particulars: 30 μM pure natural product, 72 h. It is filed as cell-based, human. As to the method:
as §1, §2, §3, §4, §5, §6

The subject of data set [25] is MDA-MB-231. Description: Antiproliferative MTT assay. It is filed as cell-based, human. Particulars: 30 μM pure natural product, 72 h. As for the experimental part: as §1, §2, §3, §4, §5, §6
Data set [26] concerns T47D. In words: Antiproliferative MTT assay. It is filed as cell-based, human. Conditions: 30 μM pure natural product, 72 h. As to the method: as §1, §2, §3, §4, §5, §6
Data set [27] deals with mBCRP. Also noted: method as in ref 154 (a number printed in a supplementary file, which may have a reference list of its own: not looked up in the article's list). Conditions: cited from earlier work.
Data set [28] has as its system Rat BSEP. Further details: method as in ref 154 (a number printed in a supplementary file, which may have a reference list of its own: not looked up in the article's list). Particulars: cited from earlier work.
Data set [29] relates to mouse MRP1. Further details: method as in ref 154 (a number printed in a supplementary file, which may have a reference list of its own: not looked up in the article's list). Particulars: cited from earlier work.
Data set [30] relates to ABCG5/8. Also noted: method as in ref 155 (a number printed in a supplementary file, which may have a reference list of its own: not looked up in the article's list). Conditions: cited from earlier work.
Data set [31] deals with MDR1. Particulars: cited from earlier work.
[32] abbreviates: read-out: cisplatin IC50 [95% confidence interval].

For `N.N.[Cl][Pt][Cl]` [cisplatin, reference compound], the IC50 came to 5.5 µM in data set [1] (setting [32]); 9.7 µM in data set [2]; 5.51 µM in data set [3]; 11.2 µM in data set [4]; 5.55 µM in data set [5]; 9.14 µM in data set [6]. Further, the IC50 turned out to be 4.29 µM in [7] (setting [32]), 13.3 µM in data set [8] (setting [32]), 19.5 µM in [9] (setting [32]) and 5.85 µM in [10] (setting [32]).
Turning to `O=C1CC(c2ccccc2)Oc2cc(O)cc(O)c21` (stereo not shown) [5,7-Dihydroxyflavanone], the inhibition in data set [11] and in data set [12] was < 50% throughout.
As for `CC[C@H](CC[C@@H](C)[C@H]1CC[C@H]2[C@@H]3CC=C4C[C@@H](O)CC[C@]4(C)[C@H]3CC[C@]12C)C(C)C` [Stigmast-5-en-3beta-ol], the inhibition in data set [11] and in data set [12] was < 50% each time.
For the molecule `CC(C)=CCC[C@](C)(O)[C@@H]1CC=C(C)CC1` [Alpha-bisbolol], the inhibition in data set [11] and in data set [12] was < 50% in each case.
On to `CC(C)C1=CC2=CC[C@@H]3[C@](C)(CCC[C@@]3(C)C(=O)O)[C@H]2CC1` [Abietic acid], for which the Ki was 4.08 µM in data set [11] (second value of OATP1B1/3 pair) and 1470 nM in data set [12] (first value of OATP1B1/3 pair).
As to `C=C[C@H]1CN2CC[C@@]3(C(=O)Nc4ccccc43)[C@@H]2C[C@@H]1/C(=C\OC)C(=O)OC` [isocorynoxeine], in [13], the PXR activation entry is “PXR activators”.
For the molecule `CC1(C)C2CCC1(C)C(O)C2` (stereo not shown) [Borneol], the Type of interaction result in [14], in [15], in data set [16], in [17] and in [18] was “inhibited the transcription” in each case.
On to `CC1(C)CCC2(C(=O)O)CCC3(C)C(=CCC4C5(C)CCC(O)C(C)(CO)C5CCC43C)C2C1` (stereo not drawn) [alpha-Hederagenin], for which the IC50 is 1.09 ± 0.12 nM in data set [19], 0.15 ± 0.02 nM in data set [20] and 1.34 ± 0.04 nM in data set [21].
For the molecule `C=C[C@H]1CN2CC[C@]3(C(=O)Nc4ccccc43)[C@@H]2C[C@@H]1/C(=C\OC)C(=O)OC` [corynoxeine], in data set [13], the PXR activation result was “PXR activators”.
With `COC(=O)C1=CO[C@@H](C)[C@@H]2CN3CC[C@@]4(C(=O)Nc5ccccc54)[C@H]3C[C@H]12` [uncarine D], the “Cell growth inhibition at the highest concentration (% ± SEM)” value in data set [1] (30 μM pure natural product), in [22], in [7] (30 μM pure natural product), in data set [23], in data set [8] (30 μM pure natural product) and in [9] (30 μM pure natural product) was < 20% in each case. Besides, the “Cell growth inhibition at the highest concentration (% ± SEM)” value in [24], in [25], in [26] and in data set [10] (30 μM pure natural product) was < 20% in each case.
With `COC(=O)C1=CO[C@@H](C)[C@@H]2CN3CC[C@]4(C(=O)Nc5ccccc54)[C@@H]3C[C@H]12` [pteropodine], in data set [13], the PXR activation entry is recorded as “PXR activators”.
Consider `CC[C@H](CC[C@@H](C)[C@H]1CC[C@H]2[C@@H]3CC=C4C[C@@H](O)CC[C@]4(C)[C@H]3CC[C@]12C)C(C)C` [Beta-Sitosterol], for which the Type of interaction result in data set [27] is listed as “no substrate, no inhibitor”; in data set [28], “no substrate, no inhibitor”; in data set [29], “no substrate, no inhibitor”; in [30], “probably substrate”; in [31], “no substrate, no inhibitor”.
Turning to `COc1cc(O)cc(/C=C/c2ccccc2)c1` [Pinosylvin 3-(methyl ether)], the inhibition in data set [11] and in data set [12] was < 50% in each case.
